Data set [1] has as its system maximal electroshock (MES) seizures in mice. The data set can be described thus: Maximal Electroshock Seizure Test (MES). In kind it is in vivo. Conditions: Mus musculus, 0.5 h, ip, 30 min before electroshock 50 mA 0.2 sec, read-out: Convulsant Challenge ED50, MES. How it is done: Maximal Electroshock Seizure Test (MES)
Test compounds were dissolved in 30% polyethylene glycol and given by intraperitoneal (ip) injections in a volume of 0.01 mL/g of body weight. […] Corneal electrodes were applied to the eyes, and an electrical stimulus consisting of a 60-Hz alternating current of 50 mA was delivered for 0.2 sec. The animals were held by hand and released at the time of stimulation for observation of the seizure. Abolition of the hindleg tonic extension component was taken as the endpoint for this test.
(Protection in the maximal electroshock model is a classic sign of anticonvulsant action.)

Data set [2] concerns pentylenetetrazol (PTZ) seizures in mice. In words: Pentylenetetrazol Seizure Threshold Test (PTZ). In kind it is in vivo, mouse (female CF-1). The conditions noted are these: Mus musculus, 0.5 h, ip, 30 min before pentylenetetrazol 85 mg/kg ip, read-out: Convulsant Challenge ED50, PTZ. The procedure:
Pentylenetetrazol Seizure Threshold Test (PTZ)
Anticonvulsant screening was accomplished by methods based on those of Swinyard and Woodhead using female CF-1 strain mice. […] The animals were placed in isolation cages and observed for the next 30 minutes for the presence or absence of a seizure. A threshold convulsion is defined as one episode of clonic spasms that persists for at least a 5-sec period.

A short description of data set [3]: Rotorod Test for Toxicity (neurotoxicity). The data set is classed as in vivo, mouse. The conditions noted are these: mouse, in vivo, mice, ip, 30 min. How it is done: (§1) Rotorod Test for Toxicity
(§2) This test is used in mice to assess neurotoxicity. Mice were placed on a 1 in. diameter rod, which rotates at 6 rpm, and tested for maintenance of their equilibrium for 10 min. All mice were pre-tested before a test substance is given. Test compounds are dissolved in 30% polyethylene glycol and given by intraperitoneal (ip) injections in a volume of 0.01 mL/g of body weight. […] This test also measures sedative effect of the compound tested. […] 21, 1985.

Data set [4] is described as follows: Convulsant activity (observation of seizures in injected mice). Conditions: mouse, in vivo, read-out: Convulsive Activity CD50. How it is done: Convulsant activity of test compounds is assessed by monitoring injected mice by monitoring seizures by observing for the onset of myoclonic twitches, generalized clonic seizures and tonic seizures.
The next data set has as its system convulsant seizures. The conditions noted are these: in vivo; cited from earlier work.
Data set [5] deals with anxiety in mice (plus-maze). In words: Anxiolytic plus-maze test. In kind it is in vivo, mouse (male NIH Swiss). Conditions: for Time spent on Plus-Maze Open Arms (% of Control): mice, ip, 30 min, 5 min test. From the text: A modification of the plus-maze test (Lister R G (1987) "The use of a plus-maze to measure anxiety in the mouse" Psychopharmacology, 92, 180-185.) was used to measure the anxiolytic activity of the compounds of this invention in mice. The plus-maze apparatus used in the test consisted of four 30 cm×5 cm arms, two of which were enclosed by 16 cm high walls while the other two were unwalled. The four arms radiated out from a 5×5 cm central platform. The entire maze was elevated 34 cm on legs. The floor parts of the maze were made of wood painted black. The walls were clear plexiglass.
Male mice of the NIH Swiss strain are used in the test which is carried out in a room with no distractions. Test compounds were dissolved in 30% polyethylene glycol and given by intraperitoneal (ip) injections in a volume of 0.01 mL/g of body weight. […] During each 5 minute test, the number of entries to open arms and closed arms and the amount of time spent on each were recorded. A mouse has entered an arm when all four feet are on the arm. Each mouse was used only once. The anxiolytic dose of a test compound is that dose which causes a significant increase in the amount of time the test mouse spends in the open arms of the plus-maze in comparison to the amount of time a control mouse not receiving a test compound spends in the open arms of the maze.

In a further data set the test system is GABAA receptor. In words: Potentiation of GABA currents in cultured rat hippocampal neurons (GABAA receptor electrophysiology test, whole-cell patch clamp). In kind it is cell-based, rat (Sprague-Dawley). In general terms: In patch-clamp work, channel activity is measured electrically.
In another data set the test system is neurotoxicity in mice. In words: Rotorod Test for Toxicity (neurotoxicity). In kind it is in vivo, mouse. Conditions: ip, 30 min. The procedure:
as §1, §2
A general note: In the rotarod test animals must keep their balance on a rotating rod.

The next data set relates to sedation in mice. The conditions noted are these: 100 mg/kg; cited from earlier work.

By ED50 is commonly meant the dose that gives a 50% effect, or the effect in half of the subjects. For orientation: TD50 means the 50% point of the dose-response relation for the toxic effect studied.

Method for GABAA receptor: Hippocampal Cell Culture Methods
Under halothane anaesthesia, 1 day old female Sprague-Dawley rats were sacrificed by rapid decapitation and the hippocampi were dissected, minced and incubated in 3 mL of Leibovitz's L-15 containing 1 mg/mL papain and 0.2 mg/mL bovine serum albumin (BSA) for 20 min. at 37° C. The papain solution was removed and the hippocampi were triturated with pasteur pipettes in growth medium. The resulting suspension was centrifuged through 2 mL of medium containing 10 mg/mL trypsin inhibitor and 10 mg/mL BSA. The cells were resuspended into growth medium and plated, 2.5×10^5 cells/dish, on a monolayer of cortical glial cells in 35 mm plastic culture dishes. The culture dishes were pretreated with poly-L-lysine followed by plating of glial cells harvested from the cortices of 2-6 day postnatal rats four days prior to neuron plating. […]
Medium in the culture dishes was replaced with an extracellular solution containing: 140 mM NaCl, 3 mM KCl, 10 mM HEPES, 5 mm MgCl2, and 5.5 mM glucose. Neurons were recorded using the whole cell configuration of the patch clamp technique, (Hamil P O, Marty A, Neher E, Sakmann B, Sakmann J F (1981) "Improved patch-clamp techniques for high resolution current recordings from cells and cell-free membrane patches" Pfluegers Arch., 391, 85-100.) and the neuronal membrane was clamped to a potential of 130 mV. […]

Turning to `CC1(Cc2ccccc2)CCCNC1=O` (stereo not drawn) [3-Methyl-3-phenylmethyl-2-piperidinone, 3-methyl-3-phenylmethyl-2-piperidinone], the figures for the ED50 in [1] and in data set [2] were 49 mg/kg and 56 mg/kg, respectively. In addition, the TD50 at 0.5 h in [3] amounted to 131 mg/kg.
`CCC1(CC)CC(C)(C)NC1=O` [3,3-Diethyl-5,5-dimethyl-2-pyrrolidinone]: the CD50 (convulsant dose, 50%) in data set [4] amounted to 75 mg/kg.
With `CCC1CCCNC1=O` (stereo not drawn) [3-Ethyl-2-Piperidinone, reference compound], the ED50 in [2] stood at 339 mg/kg. The TD50 at 0.5 h in data set [3] amounted to 382 mg/kg.
For `CCC1(C)CCN(C)C1=O` (stereo not drawn) [1,3-Dimethyl-3-ethyl-2-pyrrolidinone], in that order: 259 mg/kg and 520 mg/kg.
For `O=C1CCCCN1` [2-Piperidinone, reference compound], in that order: > 600 mg/kg and > 600 mg/kg.
In the case of `CCC1(C)CNC(=O)C1` (stereo not drawn) [4-Ethyl-4-Methyl-2-pyrrolidinone, 4-ethyl-4-methyl-2-pyrrolidinone, reference compound], the ED50 in data set [1] is > 300 mg/kg; in data set [2], 327 mg/kg. Moreover, in the data set with convulsant seizures, the “anticonvulsant activity reported in literature” value was “much less active”. For the same compound, in data set [3], the TD50 at 0.5 h was > 300 mg/kg.
For `CCC1(CC)CCNC1=O` [3,3-Diethyl-2-pyrrolidinone], the “anxiolytic activity” value in data set [5] (compared to α-ethyl-α-methyl-γ-thiobutyrolactone, Table 3) is on record as “significantly stronger anxiolytic activity”. The “Time spent on Plus-Maze Open Arms (% of Control)” value turned out to be 179% in data set [5] (dose 100 mg/kg) and 253% in [5] (dose 175 mg/kg). Moreover, the ED50 in data set [1] was 174 mg/kg; in data set [2] it was 46 mg/kg. In addition, in the data set on GABAA receptor (compound 1 mM, 3 μM GABA, mean ± SEM, percent of control response (100%)), the “% Potentiation Relative to Control (N)” value turned out to be 274 ± 64%. For the same compound, the “enhancement of GABA-mediated chloride ion currents” value in the data set with GABAA receptor (cultured rat hippocampal neurons) was “more effectively than the previously described α-ethyl-α-methyl-γ-thiobutyrolactone”. In the data set on neurotoxicity in mice, the “Toxicity TD50” value was determined as 260 mg/kg.
`CCC1CC(C)(C)NC1=O` (stereo not drawn) [3-Ethyl-5,5-dimethyl-2-pyrrolidinone]: the CD50 (convulsant dose, 50%) in [4] is 106 mg/kg.
Turning to `CC1CCNC1=O` (stereo not drawn) [3-Methyl-2-pyrrolidinone, reference compound], the figures for the ED50 in [1] and in data set [2] were > 750 mg/kg and > 900 mg/kg, respectively. Besides, in data set [3], the TD50 at 0.5 h was ~900 mg/kg.
For the compound `CC1(C)CCC(=O)N1` [5,5-Dimethyl-2-pyrrolidinone], the CD50 (convulsant dose, 50%) in [4] came out at 387 mg/kg.
Consider `CCC1(C)CCCNC1=O` (stereo not drawn) [3-Ethyl-3-Methyl-2-Piperidinone, 3-ethyl-3-methyl-2-piperidinone], for which the ED50 stood at 198 mg/kg in [1] and 162 mg/kg in data set [2]. Besides, the TD50 at 0.5 h in [3] is 382 mg/kg.
Consider `CC1(C)CNC(=O)C1(C)C` [3,3,4,4-Tetramethyl-2-pyrrolidinone], for which, in [4], the CD50 (convulsant dose, 50%) is 32 mg/kg.
Regarding `CC1(C)CCNC1=O` [3,3-Dimethyl-2-pyrrolidinone, 3,3-dimethyl-2-pyrrolidinone, reference compound], the results for the ED50 in data set [1] and in [2] were > 600 mg/kg and 708 mg/kg, respectively. Also, the “anticonvulsant activity reported in literature” value with convulsant seizures is “no anticonvulsant activity”. The compound further yielded a TD50 at 0.5 h in data set [3] of 900 mg/kg.
In the case of `CCC1(CC)CCCNC1=O` [3,3-Diethyl-2-piperidinone], the ED50 in [1] worked out at 56 mg/kg; in [2], 39 mg/kg. Also, the TD50 at 0.5 h in data set [3] turned out to be 177 mg/kg. The “sedative activity reported in literature” value in the data set with sedation in mice is recorded as “weak sedative activity”.
Regarding `O=C1NCCCC1Cc1ccccc1` (stereo not drawn) [3-Phenylmethyl-2-piperidinone, 3-phenylmethyl-2-piperidinone], the ED50 came to 42 mg/kg in data set [1] and 85 mg/kg in data set [2]. In data set [3], this compound had a TD50 at 0.5 h of 294 mg/kg.
For the compound `CC1(C)CNC(=O)C1` [4,4-Dimethyl-2-pyrrolidinone, reference compound], the 50% effective dose (ED50) in data set [2] worked out at 600 mg/kg. The TD50 at 0.5 h in [3] is > 600 mg/kg.
As to `CC1(C)CCSC1=O` [α,α-dimethyl-y-thiobutyrolactone], the ED50 in [2] was > 500 mg/kg.
As to `CC1CCCNC1=O` (stereo not drawn) [3-Methyl-2-Piperidinone, reference compound], the ED50 in data set [1] and in [2] was > 600 mg/kg each time. The TD50 at 0.5 h in data set [3] was > 600 mg/kg.
In the case of `CCC1(Cc2ccccc2)CCCNC1=O` (stereo not drawn) [3-Ethyl-3-phenylmethyl-2-piperidinone, 3-ethyl-3-phenylmethyl-2-piperidinone], the ED50 came out at 79 mg/kg in [1] and 61 mg/kg in data set [2]. For the same compound, the TD50 at 0.5 h in data set [3] was 102 mg/kg.
In the case of `O=C1CCCN1` [2-Pyrrolidinone, reference compound], the figures for the ED50 in [1] and in data set [2] were > 600 mg/kg and > 900 mg/kg, respectively. Besides, the “Toxicity TD50” value with neurotoxicity in mice was > 900 mg/kg.
Turning to `O=C1NCCC1Cc1ccccc1` (stereo not drawn) [3-Phenylmethyl-2-pyrrolidinone, 3-phenylmethyl-2-pyrrolidinone], the ED50 in [1] turned out to be 41 mg/kg; in data set [2], 71 mg/kg. Further, the “Toxicity TD50” value in the data set on neurotoxicity in mice worked out at 144 mg/kg.
